Source: US7524503B2, “Human cytomegalovirus (HCMV) cytotoxic T cell epitopes, polyepitopes compositions comprising same and diagnostic and prophylactic and therapeutic uses therefor” (priority 2001, dated 2009)
Where “and” joins values, the source holds several entries; their conditions need not be identical. Equal values may be shown once. Read-outs that look alike come from different tables or passages of the source.

How the values were obtained:
Assay type in all cases: cell-based, human
[1] = system: PBMC from healthy HCMV seropositive donors; assay: IFN-γ ELISPOT assay; details: for ELISPOT Responses (SFC/10^6 PBMC): peptide 10 μg/ml
Protocol: ELISPOT assay was used to assess whether stimulation of PBMC from a large panel of seropositive donors with HCMV peptides could induce IFN-γ expression in T cells. Briefly, a 96-well nitrocellulose plate (Multiscreen, Millipore) was coated overnight at 4° C. with mouse monoclonal antibody anti-IFN-γ IgG1 (10 μg/ml; Mabtech Nacka, Sweden). The plate was then washed six times in Phosphate Buffered Saline (PBS) and blocked for 1 hour at 37° C. with PBS supplemented with 5% FCS. The blocking solution was removed and PBMC from healthy HCMV seropositive donors were added at a concentration of 2.5×10^5 cells per well in growth medium. These cells were incubated for 18 h at 37° C. in a 5% CO2 atmosphere in the presence of synthetic peptides from HCMV antigens (10 μg/ml). After incubation, the plate was washed three times with PBS supplemented with 0.05% Tween, followed by three washes with PBS alone. Biotinylated anti-IFN-γ (Mabtech, Nacka Sweden) detection antibody was added to each well at a final concentration of 1 μg/ml in PBS. The plates were incubated at room temperature in the dark for 4 h and then washed, as described above. Streptavidin-Alkaline phosphatase (Sigma) was added to each well at a final concentration of 1 μg/ml in PBS and incubated at room temperature in the dark for 2 h. After a final wash with PBS, the substrate, 5-bromo-4-chloro-3-indolyl phosphate and nitro blue tetrazolium, was added to each well and the plates incubated for 30 min at RT. Cells that produced IFN-γ in response to the presence of peptide were detected as purple spots on the nitrocellulose membrane of each well. The spots were counted automatically using a closed-circuit camera (CCD) and ImagePro image analysis software or automated ELISPOT reader (AID, Germany). The T cell precursor frequency for each peptide was based on the total number of PBMC in the well and the number of peptide-specific spots per well, over an average of 3 wells. The number of peptide-specific spots was also calculated by subtracting the negative control values, which consisted of PBMC without peptide (an average of 3 wells), from the test wells.
To determine whether memory CTL responses against the predictive HCMV potential epitopes could be detected in healthy seropositive virus carriers, we used the ELISPOT assay, which allows rapid identification of CTL epitopes without prolonged in vitro culture.
We tested epitopes that were restricted for HLA A1, A3, A24, A26, B7, B8, B27, B35 and B44 in ELISPOT assays, to determine whether memory T cell responses could be detected in healthy HLA-matched virus carriers. PBMC from a cohort of healthy virus carriers (Table 2) were stimulated with individual peptides and the cells that produced IFN-γ were detected. CTL epitopes that were restricted through either HLA A1, A3, A24, A26, B7, B8 or B27, were identified.
Thus, a total of 450 peptides were produced. ELISPOT assays were used to determine whether ex vivo memory T cell responses could be detected in a cohort of 14 healthy virus carriers (Table 2). PBMC were stimulated with individual peptides and the cells that produced IFN-γ were detected.

[2] = system: peptide-sensitized autologous PHA blasts or LCLs; parameters: key to CTL response: Y: Yes; ND: Not detected
CD8+ T cells = assay: CD4+/CD8+ analysis of 20-mer peptides (intracellular IFN-γ staining or depletion ELISPOT)
Protocol: (§1) To determine whether a particular 20-mer peptide contained either a CD4^+- or CD8^+-restricted epitope, or both, CD4^+/CD8^+ cell depletion ELISPOT assays were performed on PBMC from healthy virus carriers. For any one experiment, three populations of cells were used: a) CD8^+-depleted PBMC, b) CD4^+-depleted PBMC, and c) non-depleted PBMC. These populations of cells were tested concurrently with the same peptides in a conventional ELISPOT assay as described herein above. DYNABEADS M-450 (Dynal, Oslo, Norway) that bound specifically to CD4^+- or CD8^+ cells were used to perform the depletion essentially according to manufacturers instructions. Beads were washed twice in cold PBS supplemented with 2% FCS using magnetic isolation. The requisite number of cells was resuspended in cold PBS supplemented with 2% FCS, added to the beads and then incubated at 4° C., in the dark, for 30 mins (CD8^+ beads) or 60 mins (CD4^+ beads). Populations were depleted of CD4^+ or CD8^+ cells using magnetic separation. After depletion, the non-attached cells were removed and washed once in growth medium, counted and used in conventional ELISPOT assay. Depleted cells were used at 1.7×10^5 cells per well and the non-depleted population was used at the standard 2.5×10^5 cells per well. After the depletion step, each respective cell population was assessed for the purity of CD4^+ and CD8^+ T cells by three-colour flow cytometry. Samples of depleted cell populations were stained with anti-CD3 antibody directly conjugated to fluorescein isothiocyanate (FITC), anti-CD4 antibody conjugated with phycoerythrin (PE) fluorochrome, and anti-CD8 antibody conjugated with Tricolor fluorochrome (described below). The percent of CD3^+/CD4^+ cells present within the CD8^+-depleted population and the percent of CD3^+/CD8^+ cells present within the CD4^+-depleted populations were assessed on FACSCalibur cytometer (Becton Dickinson). The purity of each population was greater than 90% and the results from the ELISPOT assays are expressed as the percentage of CD4+ or CD8^+ cells within the depleted populations that responded toward each peptide by producing IFN-γ.
(§2) PBMCs were incubated at 37° C. in RPMI+10% FCS with and without 10 μg/ml peptides for 6 hours. Golgiplug™ (Pharmingen, San Diego, Calif., USA) was added to the samples according to manufacturer's instructions during the second hour of incubation and cells activated with 25 ng/ml phorbol 12-myristidate 13-acetate (PMA; Sigma-Aldrich Co, St. Louis Mo.) and 1 μg/ml iomomycin (Sigma) acted as a positive control. Following the incubation, 1×10^6 cells/sample were washed and resuspended in staining buffer consisting of PBS with GolgiPlug™, 3% FCS and sodium azide. Cells were then stained with FITC conjugated anti-CD3-FITC (UCHT1, Immunotech, Marseille, France), and either Tricolor (TRI) conjugated anti-CD4 (S3.5, Caltag, Burlingame, Calif.) or anti-CD8 (3B5, Caltag) for 30 minutes, 4° C. in the dark. The cells were fixed for 20 min at 4° C. with Cytofix/Cytoperm™ (BD Biosciences) and resuspended in Perm/Wash™ permeabilization buffer (BD Biosciences) according to manufacturers protocol. Fixed cells were stained with phycoerythrin (PE) conjugated anti-human IFN-γ (B27, Pharmingen) for 30 min at 4° C. in the dark. As a negative control, cells were stained with appropriate isotype matched control antibodies. Cells were washed twice in permeabilization buffer and resuspended in staining buffer before analysis by three-colour flow cytometry on a FACSCalibur cytometer (BD Biosciences). All data analysis was carried out using FlowJo software (Tree Star, Inc. San Carlos, CA).
(§3) When using 20-mer peptides to map epitopes by ELISPOT, it is possible that some responses may be MHC class-II restricted, and not necessarily restricted through HLA class I alleles. It was evident throughout this study that some epitopes identified using ELISPOT could not be confirmed using cytotoxicity analysis. […]

CD4+ T cells = assay: as above
Protocol: as §1, §2, §3

[3] = overlapping 20mer peptides, Table 4

LNIPSINVHHYPSAAERKHR was tested. Which “ELISPOT Responses (SFC/10^6 PBMC)” value ([1]; donor sixteen) did it give?
The value was 222 SFC/10^6 PBMC.

And the “ELISPOT Responses (SFC/10^6 PBMC)” value ([1]; donor twelve)?
The value was 285 SFC/10^6 PBMC.

And the CTL response [2, 3]?
Its CTL response is “Y”.

“KAAWSLKELHTHQLCPRSSD (human cytomegalovirus IE2 CTL epitope peptide)” was tested. Which “Responding cells (% CD8)” value (CD8+ T cells; donor sixteen) did it give?
The value was 0.08%.

What about the “Responding cells (% CD4)” value (CD4+ T cells; donor sixteen) of the same sequence?
The value was 0%.

And the “ELISPOT Responses (SFC/10^6 PBMC)” value ([1]; donor sixteen)?
The value was “TC(162) SFC/10^6 PBMC”.

What does the source list for TGGGAMAGASTSAGRKRKSA?
Responding cells (% CD8) (CD8+ T cells; donor eight): JW(0.01/0.01) %; Responding cells (% CD4) (CD4+ T cells; donor eight): JW(0.01/0.01) %; ELISPOT Responses (SFC/10^6 PBMC) ([1]; donor eight): JW(441) SFC/10^6 PBMC

For FPTKDVAL [reference compound], which “ELISPOT Responses (SFC/10^6 PBMC)” value ([1]; donor three) is on record?
Its value is “MW(445) SFC/10^6 PBMC”.

And the “CTL response” value ([2]; predicted epitopes, Table 3)?
The value was “Y”.

For GAAQGDDDVWTSGSDSDEEL, which “Responding cells (% CD8)” value (CD8+ T cells; donor eight) is on record?
The value was 0.01%.

And the “Responding cells (% CD4)” value (CD4+ T cells; donor eight)?
Its value is 0%.

What about the “ELISPOT Responses (SFC/10^6 PBMC)” value ([1]; donor eight) of the same sequence?
The value was “JW(248) SFC/10^6 PBMC”.

For VTTERKTPRVTGGGAMAGAS, which “Responding cells (% CD8)” value (CD8+ T cells; donor eight) is on record?
Its value is 0.24%.

And the “Responding cells (% CD4)” value (CD4+ T cells; donor eight)?
Its value is 0.17%.

What about the “ELISPOT Responses (SFC/10^6 PBMC)” value ([1]; donor eight) of the same sequence?
Its value is 285 SFC/10^6 PBMC.

And the “ELISPOT Responses (SFC/10^6 PBMC)” value ([1]; donor epsilon)?
The value was 322 SFC/10^6 PBMC.

What about the “ELISPOT Responses (SFC/10^6 PBMC)” value ([1]; donor two) of the same sequence?
Its value is “JD(319) SFC/10^6 PBMC”.

Which results are given for “SSSSSSCSSASDSESESEEM (human cytomegalovirus IE2 CTL epitope peptide)”?
Responding cells (% CD8) (CD8+ T cells; donor eight): 0.01%; Responding cells (% CD8) (CD8+ T cells; donor sixteen): 0.05%; Responding cells (% CD4) (CD4+ T cells; donor eight): 0%; Responding cells (% CD4) (CD4+ T cells; donor sixteen): 0%; ELISPOT Responses (SFC/10^6 PBMC) ([1]; donor eight): 125 SFC/10^6 PBMC; ELISPOT Responses (SFC/10^6 PBMC) ([1]; donor sixteen): 93 SFC/10^6 PBMC

Which results are given for ILARNLVPMVATVQGQNLKY?
ELISPOT Responses (SFC/10^6 PBMC) ([1]; donor four): 500 SFC/10^6 PBMC; ELISPOT Responses (SFC/10^6 PBMC) ([1]; donor seven): 216 SFC/10^6 PBMC; ELISPOT Responses (SFC/10^6 PBMC) ([1]; donor three): MW(229) SFC/10^6 PBMC; CTL response [2, 3]: Y

Which results are given for TGPRKKKSKRISELDNEKVR?
Responding cells (% CD8) (CD8+ T cells; donor seven): SB(0.02/0.02) %; Responding cells (% CD4) (CD4+ T cells; donor seven): SB(0.02/0.02) %; ELISPOT Responses (SFC/10^6 PBMC) ([1]; donor delta): 162 SFC/10^6 PBMC; ELISPOT Responses (SFC/10^6 PBMC) ([1]; donor seven): 148 SFC/10^6 PBMC

How did the “donors recognizing the epitope in ELISPOT” value ([1]; cohort of eight HLA A2-positive healthy seropositive donors) turn out when NLVPMVATV [reference compound] was run?
The value was “recognized by every donor tested”.

And the “ELISPOT Responses (SFC/10^6 PBMC)” value ([1]; donor delta)?
The value was 170 SFC/10^6 PBMC.

What about the “ELISPOT Responses (SFC/10^6 PBMC)” value ([1]; donor fifteen) of the same sequence?
Its value is 356 SFC/10^6 PBMC and 671 SFC/10^6 PBMC.

What about the “ELISPOT Responses (SFC/10^6 PBMC)” value ([1]; donor one) of the same sequence?
Its value is 1201 SFC/10^6 PBMC.

And the “ELISPOT Responses (SFC/10^6 PBMC)” value ([1]; donor seven)?
The value was 1202 SFC/10^6 PBMC.

What about the “ELISPOT Responses (SFC/10^6 PBMC)” value ([1]; donor seventeen) of the same sequence?
The value was 271 SFC/10^6 PBMC.

What about the “ELISPOT Responses (SFC/10^6 PBMC)” value ([1]; donor six) of the same sequence?
Its value is 1195 SFC/10^6 PBMC.

And the “ELISPOT Responses (SFC/10^6 PBMC)” value ([1]; donor thirteen)?
The value was 161 SFC/10^6 PBMC.

What about the “CTL response” value ([2]; predicted epitopes, Table 3) of the same sequence?
Its value is “Y”.

Which results are given for “VLCCYVLEETSVMLAKRPLI (human cytomegalovirus IE1 CTL epitope peptide)”?
ELISPOT Responses (SFC/10^6 PBMC) ([1]; donor seven): SB(2171) SFC/10^6 PBMC; CTL response [2, 3]: Y
